Test results from article PMC11678245, “The Molecular Basis of the Intrinsic and Acquired Resistance to Azole Antifungals in Aspergillus fumigatus” (Journal of Fungi, 2024).
Where “and” joins values, the source holds several entries; their conditions need not be identical. Identical values can stand only once. Entries after “also recorded” stand apart in the source; their conditions may differ.

What was measured:
AfCYP51A-6×His = AfCYP51A-6×His (Aspergillus fumigatus, UniProt Q4WNT5); test: Type I binding of substrates (difference spectra); parameters: Full-length codon-optimised AfCYP51A-6×His and AfCYP51B-6×His were constitutively co-expressed; made in house; settings: AfCYP51A-6×His 5 µM, concentrations up to 300 μM
Chain of AfCYP51A-6×His (Q4WNT5 whole entry): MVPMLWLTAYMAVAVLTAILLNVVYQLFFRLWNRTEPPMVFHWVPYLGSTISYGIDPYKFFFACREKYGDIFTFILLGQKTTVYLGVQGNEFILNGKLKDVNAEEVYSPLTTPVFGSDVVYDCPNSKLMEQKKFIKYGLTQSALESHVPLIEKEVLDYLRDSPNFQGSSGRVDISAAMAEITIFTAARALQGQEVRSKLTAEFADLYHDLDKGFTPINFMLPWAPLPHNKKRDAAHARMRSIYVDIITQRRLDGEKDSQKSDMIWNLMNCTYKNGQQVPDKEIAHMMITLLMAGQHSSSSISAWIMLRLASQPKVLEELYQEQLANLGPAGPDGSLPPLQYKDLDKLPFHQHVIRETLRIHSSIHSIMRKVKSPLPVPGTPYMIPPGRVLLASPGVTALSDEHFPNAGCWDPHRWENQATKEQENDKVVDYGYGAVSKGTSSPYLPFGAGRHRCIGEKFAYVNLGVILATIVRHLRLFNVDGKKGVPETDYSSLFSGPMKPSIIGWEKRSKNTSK
Method: (§1) The concentration of AfCYP51A and AfCYP51B, purified using Ni-NTA affinity chromatography and used for the spectrophotometric type I and type II binding assays, was calculated using an extinction co-efficient of λ417nm = 117 mM^−1 cm^−1 applied to the absolute absorption spectrum of the preparations. In addition, the amount of “active” cytochrome P450 enzyme was determined using the carbon monoxide (CO) binding spectra of these preparations.
Type I binding of substrates lanosterol and eburicol in the active site of the Ni-NTA affinity-purified AfCYP51A and AfCYP51B enzymes was assessed using the method of Warrilow et al.. […] Substrate saturation curves were constructed by plotting the maximal ∆Apeak−trough obtained between 350 and 500 nm, allowing for a change in the reaction volume during the titration. The substrate binding constant (KS) was calculated by nonlinear regression (Levenberg–Marquardt algorithm) applied to the Michaelis–Menten equation or the Hill equation. GraphPad Prism 9.2.0 software was used to identify the best fit for the data.

AfCYP51B-6×His = molecular target: T1, AfCYP51B-6×His (Aspergillus fumigatus, UniProt E9QY26); test: Type I binding of substrates (difference spectra)
T1 sequence (E9QY26 1-524): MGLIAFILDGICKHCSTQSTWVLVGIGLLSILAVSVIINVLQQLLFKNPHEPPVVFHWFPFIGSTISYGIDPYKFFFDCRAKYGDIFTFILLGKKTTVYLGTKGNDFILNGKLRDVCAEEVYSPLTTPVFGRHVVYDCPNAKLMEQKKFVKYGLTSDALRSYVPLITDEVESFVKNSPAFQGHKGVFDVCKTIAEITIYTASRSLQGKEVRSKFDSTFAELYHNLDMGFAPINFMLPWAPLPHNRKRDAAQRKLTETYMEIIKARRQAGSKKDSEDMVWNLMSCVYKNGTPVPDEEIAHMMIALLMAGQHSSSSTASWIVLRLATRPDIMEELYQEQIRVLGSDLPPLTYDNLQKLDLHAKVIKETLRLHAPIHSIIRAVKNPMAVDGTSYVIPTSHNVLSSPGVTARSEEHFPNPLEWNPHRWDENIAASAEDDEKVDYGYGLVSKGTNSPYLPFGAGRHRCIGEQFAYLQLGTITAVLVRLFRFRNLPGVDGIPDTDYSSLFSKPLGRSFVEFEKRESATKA
Method: as §1
Type I binding of substrates lanosterol and eburicol in the active site of the Ni-NTA affinity-purified AfCYP51A and AfCYP51B enzymes was assessed using the method of Warrilow et al.. Titrations of 5 μM AfCYP51-6×His protein with lanosterol or eburicol (1 to 250 μM) were measured using a Cary 300 UV–Visible Spectrophotometer (Agilent Technologies, Santa Clara, CA, USA). Substrate saturation curves were constructed by plotting the maximal ∆Apeak−trough obtained between 350 and 500 nm, allowing for a change in the reaction volume during the titration. The substrate binding constant (KS) was calculated by nonlinear regression (Levenberg–Marquardt algorithm) applied to the Michaelis–Menten equation or the Hill equation. GraphPad Prism 9.2.0 software was used to identify the best fit for the data.

SMILES: CC(C)=CCC[C@@H](C)[C@H]1CC[C@@]2(C)C3=C(CC[C@]12C)[C@@]1(C)CC[C@H](O)C(C)(C)[C@@H]1CC3 [Lanosterol, lanosterol]
- type I binding response (AfCYP51A-6×His): did not give the expected type I binding response; also recorded: did not give a type I binding response
- type I binding spectrum peak (AfCYP51B-6×His; AfCYP51B-6×His): 386 nm
- type I binding spectrum trough (AfCYP51B-6×His; AfCYP51B-6×His): 423 nm
- ΔAmax (type I binding) (AfCYP51B-6×His; AfCYP51B-6×His 5 μM, Michaelis–Menten equation): 0.22 and 0.219
- Kd (AfCYP51B-6×His; AfCYP51B-6×His 5 μM, type I binding, Michaelis–Menten equation, read-out: Ks): 477 µM
- affinity of AfCYP51B for eburicol versus lanosterol (AfCYP51B-6×His; ratio of Ks values): approximately 6 fold
